# Reference: ChEMBL document CHEMBL2429807, “Synthesis and cytotoxicity of novel 4-(4-(substituted)-1H-1,2,3-triazol-1-yl)-N-phenethylbenzenesulfonamides” (Med Chem Res, 2013)
# System: MOLT-3
# Assay: Cytotoxicity against human MOLT3 cells after 48 hrs by XTT assay
# Assay type: functional, cell-based
# Settings: MOLT-3, 48 h
row,SMILES,IC50
1,COc1ccc(CCNS(=O)(=O)c2ccc(-n3cc(-c4ccccc4)nn3)cc2)cc1OC,61 µM
2,COC(=O)c1ccccc1OCc1cn(-c2ccc(S(=O)(=O)NCCc3ccccc3)cc2)nn1,8.81 µM
3,O=c1ccc2ccc(OCc3cn(-c4ccc(S(=O)(=O)NCCc5ccccc5)cc4)nn3)cc2o1,89 µM
4,COc1cc([C@@H]2c3cc4c(cc3[C@@H](O[C@@H]3O[C@@H]5CO[C@@H](C)O[C@H]5[C@H](O)[C@H]3O)[C@H]3COC(=O)[C@H]23)OCO4)cc(OC)c1O [ETOPOSIDE],0.051 µM
5,O=S(=O)(NCCc1ccccc1)c1ccc(-n2cc(COc3ccccc3)nn2)cc1,> 50 µg/mL
6,Nc1ccc(S(=O)(=O)NCCc2ccccc2)cc1,167 µM
7,O=Cc1ccc(OCc2cn(-c3ccc(S(=O)(=O)NCCc4ccccc4)cc3)nn2)cc1,32 µM
8,COc1ccc(CCNS(=O)(=O)c2ccc(N)cc2)cc1OC,104 µM
9,O=S(=O)(NCCc1ccccc1)c1ccc(-n2cc(COc3cccc4ccccc34)nn2)cc1,> 50 µg/mL
10,[N-]=[N+]=Nc1ccc(S(=O)(=O)NCCc2ccccc2)cc1,60.1 µM
11,COc1ccc(CCNS(=O)(=O)c2ccc(N=[N+]=[N-])cc2)cc1OC,48.5 µM
12,O=S(=O)(NCCc1ccccc1)c1ccc(-n2cc(-c3ccccc3)nn2)cc1,> 50 µg/mL
13,Cc1ccc(OCc2cn(-c3ccc(S(=O)(=O)NCCc4ccccc4)cc3)nn2)cc1,> 50 µg/mL
14,COc1ccc(CCNS(=O)(=O)c2ccc(-n3cc(COc4ccc([N+](=O)[O-])cc4)nn3)cc2)cc1OC,10.1 µM
15,O=[N+]([O-])c1ccc(OCc2cn(-c3ccc(S(=O)(=O)NCCc4ccccc4)cc3)nn2)cc1,61.4 µM
16,COc1cc(C=O)ccc1OCc1cn(-c2ccc(S(=O)(=O)NCCc3ccccc3)cc2)nn1,9.22 µM
17,COc1ccc(C=O)cc1OCc1cn(-c2ccc(S(=O)(=O)NCCc3ccccc3)cc2)nn1,10.3 µM
18,O=c1cc(OCc2cn(-c3ccc(S(=O)(=O)NCCc4ccccc4)cc3)nn2)c2ccccc2o1,10.7 µM
19,Cc1ccccc1OCc1cn(-c2ccc(S(=O)(=O)NCCc3ccccc3)cc2)nn1,34.2 µM
20,O=S(=O)(NCCc1ccccc1)c1ccc(-n2cc(COc3ccc4ccccc4c3)nn2)cc1,74.2 µM
21,COc1ccc(CCNS(=O)(=O)c2ccc(-n3cc(COc4ccc(C=O)cc4)nn3)cc2)cc1OC,17.4 µM

# System: A549
# Assay: Cytotoxicity against human A549 cells after 48 hrs by MTT assay
# Assay type: functional, cell-based
# Settings: A549, 48 h
row,SMILES,IC50
1,COc1ccc(CCNS(=O)(=O)c2ccc(-n3cc(-c4ccccc4)nn3)cc2)cc1OC,18.2 µM
2,COC(=O)c1ccccc1OCc1cn(-c2ccc(S(=O)(=O)NCCc3ccccc3)cc2)nn1,> 50 µg/mL
3,O=c1ccc2ccc(OCc3cn(-c4ccc(S(=O)(=O)NCCc5ccccc5)cc4)nn3)cc2o1,19.6 µM
4,O=S(=O)(NCCc1ccccc1)c1ccc(-n2cc(COc3ccccc3)nn2)cc1,> 50 µg/mL
5,Nc1ccc(S(=O)(=O)NCCc2ccccc2)cc1,> 50 µg/mL
6,O=Cc1ccc(OCc2cn(-c3ccc(S(=O)(=O)NCCc4ccccc4)cc3)nn2)cc1,> 50 µg/mL
7,COc1ccc(CCNS(=O)(=O)c2ccc(N)cc2)cc1OC,> 50 µg/mL
8,O=S(=O)(NCCc1ccccc1)c1ccc(-n2cc(COc3cccc4ccccc34)nn2)cc1,> 50 µg/mL
9,[N-]=[N+]=Nc1ccc(S(=O)(=O)NCCc2ccccc2)cc1,139 µM
10,COc1cccc2c1C(=O)c1c(O)c3c(c(O)c1C2=O)C[C@@](O)(C(=O)CO)C[C@@H]3O[C@H]1C[C@H](N)[C@H](O)[C@H](C)O1 [DOXORUBICIN],0.44 µM
11,COc1ccc(CCNS(=O)(=O)c2ccc(N=[N+]=[N-])cc2)cc1OC,> 50 µg/mL
12,O=S(=O)(NCCc1ccccc1)c1ccc(-n2cc(-c3ccccc3)nn2)cc1,34.5 µM
13,Cc1ccc(OCc2cn(-c3ccc(S(=O)(=O)NCCc4ccccc4)cc3)nn2)cc1,> 50 µg/mL
14,COc1ccc(CCNS(=O)(=O)c2ccc(-n3cc(COc4ccc([N+](=O)[O-])cc4)nn3)cc2)cc1OC,> 50 µg/mL
15,O=[N+]([O-])c1ccc(OCc2cn(-c3ccc(S(=O)(=O)NCCc4ccccc4)cc3)nn2)cc1,> 50 µg/mL
16,COc1cc(C=O)ccc1OCc1cn(-c2ccc(S(=O)(=O)NCCc3ccccc3)cc2)nn1,79.2 µM
17,COc1ccc(C=O)cc1OCc1cn(-c2ccc(S(=O)(=O)NCCc3ccccc3)cc2)nn1,39 µM
18,O=c1cc(OCc2cn(-c3ccc(S(=O)(=O)NCCc4ccccc4)cc3)nn2)c2ccccc2o1,> 50 µg/mL
19,Cc1ccccc1OCc1cn(-c2ccc(S(=O)(=O)NCCc3ccccc3)cc2)nn1,> 50 µg/mL
20,O=S(=O)(NCCc1ccccc1)c1ccc(-n2cc(COc3ccc4ccccc4c3)nn2)cc1,> 50 µg/mL
21,COc1ccc(CCNS(=O)(=O)c2ccc(-n3cc(COc4ccc(C=O)cc4)nn3)cc2)cc1OC,28 µM

# System: not listed separately
# Assay: Cytotoxicity against human HuCCa1 cells after 48 hrs by MTT assay
# Assay type: functional, cell-based
# Settings: HuCC-A1, 48 h
row,SMILES,IC50
1,COc1ccc(CCNS(=O)(=O)c2ccc(-n3cc(-c4ccccc4)nn3)cc2)cc1OC,> 50 µg/mL
2,COC(=O)c1ccccc1OCc1cn(-c2ccc(S(=O)(=O)NCCc3ccccc3)cc2)nn1,> 50 µg/mL
3,O=c1ccc2ccc(OCc3cn(-c4ccc(S(=O)(=O)NCCc5ccccc5)cc4)nn3)cc2o1,16.1 µM
4,O=S(=O)(NCCc1ccccc1)c1ccc(-n2cc(COc3ccccc3)nn2)cc1,> 50 µg/mL
5,Nc1ccc(S(=O)(=O)NCCc2ccccc2)cc1,> 50 µg/mL
6,O=Cc1ccc(OCc2cn(-c3ccc(S(=O)(=O)NCCc4ccccc4)cc3)nn2)cc1,87.9 µM
7,COc1ccc(CCNS(=O)(=O)c2ccc(N)cc2)cc1OC,> 50 µg/mL
8,O=S(=O)(NCCc1ccccc1)c1ccc(-n2cc(COc3cccc4ccccc34)nn2)cc1,> 50 µg/mL
9,[N-]=[N+]=Nc1ccc(S(=O)(=O)NCCc2ccccc2)cc1,> 50 µg/mL
10,COc1cccc2c1C(=O)c1c(O)c3c(c(O)c1C2=O)C[C@@](O)(C(=O)CO)C[C@@H]3O[C@H]1C[C@H](N)[C@H](O)[C@H](C)O1 [DOXORUBICIN],0.83 µM
11,COc1ccc(CCNS(=O)(=O)c2ccc(N=[N+]=[N-])cc2)cc1OC,> 50 µg/mL
12,O=S(=O)(NCCc1ccccc1)c1ccc(-n2cc(-c3ccccc3)nn2)cc1,8.65 µM
13,Cc1ccc(OCc2cn(-c3ccc(S(=O)(=O)NCCc4ccccc4)cc3)nn2)cc1,> 50 µg/mL
14,COc1ccc(CCNS(=O)(=O)c2ccc(-n3cc(COc4ccc([N+](=O)[O-])cc4)nn3)cc2)cc1OC,> 50 µg/mL
15,O=[N+]([O-])c1ccc(OCc2cn(-c3ccc(S(=O)(=O)NCCc4ccccc4)cc3)nn2)cc1,> 50 µg/mL
16,COc1cc(C=O)ccc1OCc1cn(-c2ccc(S(=O)(=O)NCCc3ccccc3)cc2)nn1,> 50 µg/mL
17,COc1ccc(C=O)cc1OCc1cn(-c2ccc(S(=O)(=O)NCCc3ccccc3)cc2)nn1,> 50 µg/mL
18,O=c1cc(OCc2cn(-c3ccc(S(=O)(=O)NCCc4ccccc4)cc3)nn2)c2ccccc2o1,> 50 µg/mL
19,Cc1ccccc1OCc1cn(-c2ccc(S(=O)(=O)NCCc3ccccc3)cc2)nn1,> 50 µg/mL
20,O=S(=O)(NCCc1ccccc1)c1ccc(-n2cc(COc3ccc4ccccc4c3)nn2)cc1,> 50 µg/mL
21,COc1ccc(CCNS(=O)(=O)c2ccc(-n3cc(COc4ccc(C=O)cc4)nn3)cc2)cc1OC,> 50 µg/mL

# System: HepG2
# Assay: Cytotoxicity against human HepG2 cells after 48 hrs by MTT assay
# Assay type: functional, cell-based
# Settings: HepG2, 48 h
row,SMILES,IC50
1,COc1ccc(CCNS(=O)(=O)c2ccc(-n3cc(-c4ccccc4)nn3)cc2)cc1OC,23.9 µM
2,COC(=O)c1ccccc1OCc1cn(-c2ccc(S(=O)(=O)NCCc3ccccc3)cc2)nn1,49.4 µM
3,O=c1ccc2ccc(OCc3cn(-c4ccc(S(=O)(=O)NCCc5ccccc5)cc4)nn3)cc2o1,12.4 µM
4,COc1cc([C@@H]2c3cc4c(cc3[C@@H](O[C@@H]3O[C@@H]5CO[C@@H](C)O[C@H]5[C@H](O)[C@H]3O)[C@H]3COC(=O)[C@H]23)OCO4)cc(OC)c1O [ETOPOSIDE],30.2 µM
5,O=S(=O)(NCCc1ccccc1)c1ccc(-n2cc(COc3ccccc3)nn2)cc1,57.5 µM
6,Nc1ccc(S(=O)(=O)NCCc2ccccc2)cc1,> 50 µg/mL
7,O=Cc1ccc(OCc2cn(-c3ccc(S(=O)(=O)NCCc4ccccc4)cc3)nn2)cc1,101 µM
8,COc1ccc(CCNS(=O)(=O)c2ccc(N)cc2)cc1OC,> 50 µg/mL
9,O=S(=O)(NCCc1ccccc1)c1ccc(-n2cc(COc3cccc4ccccc34)nn2)cc1,> 50 µg/mL
10,[N-]=[N+]=Nc1ccc(S(=O)(=O)NCCc2ccccc2)cc1,92.6 µM
11,COc1cccc2c1C(=O)c1c(O)c3c(c(O)c1C2=O)C[C@@](O)(C(=O)CO)C[C@@H]3O[C@H]1C[C@H](N)[C@H](O)[C@H](C)O1 [DOXORUBICIN],0.79 µM
12,COc1ccc(CCNS(=O)(=O)c2ccc(N=[N+]=[N-])cc2)cc1OC,122 µM
13,O=S(=O)(NCCc1ccccc1)c1ccc(-n2cc(-c3ccccc3)nn2)cc1,9.07 µM
14,Cc1ccc(OCc2cn(-c3ccc(S(=O)(=O)NCCc4ccccc4)cc3)nn2)cc1,81.8 µM
15,COc1ccc(CCNS(=O)(=O)c2ccc(-n3cc(COc4ccc([N+](=O)[O-])cc4)nn3)cc2)cc1OC,> 50 µg/mL
16,O=[N+]([O-])c1ccc(OCc2cn(-c3ccc(S(=O)(=O)NCCc4ccccc4)cc3)nn2)cc1,> 50 µg/mL
17,COc1cc(C=O)ccc1OCc1cn(-c2ccc(S(=O)(=O)NCCc3ccccc3)cc2)nn1,57.5 µM
18,COc1ccc(C=O)cc1OCc1cn(-c2ccc(S(=O)(=O)NCCc3ccccc3)cc2)nn1,34.5 µM
19,O=c1cc(OCc2cn(-c3ccc(S(=O)(=O)NCCc4ccccc4)cc3)nn2)c2ccccc2o1,> 50 µg/mL
20,Cc1ccccc1OCc1cn(-c2ccc(S(=O)(=O)NCCc3ccccc3)cc2)nn1,41.6 µM
21,O=S(=O)(NCCc1ccccc1)c1ccc(-n2cc(COc3ccc4ccccc4c3)nn2)cc1,28.2 µM
22,COc1ccc(CCNS(=O)(=O)c2ccc(-n3cc(COc4ccc(C=O)cc4)nn3)cc2)cc1OC,> 50 µg/mL
